The values that follow come from PubChem BioAssay (NCI).

Some test systems named below: A498 renal; BT-549 breast; EKVX NSCLC; KM12 colon; MDA-MB-231 breast; NCI-H460 lung; SK-MEL-2 melanoma; SK-MEL-28 melanoma; SK-MEL-5 melanoma; SN12C renal; SNB-75 CNS; SR leukemia; SW-620 colon; UACC-62 melanoma; UO-31 renal; OVCAR-4 ovarian; HS 578T breast.
Common to all, as to test: NCI-60 cell line screen, 48 h

Each structure is given as a SMILES string.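 Exposure lasted 48 hours, with cells grown in 96-well plates and compounds tested at five concentrations. Definition used: TGI = concentration required for complete inhibition of growth.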 Where only a bound is given, the exact number is not on record here.

`S=c1[nH]nc(Cn2c3ccc(Br)cc3c3nc4ccccc4nc32)o1`: the TGI in the test with A498 renal, in the test on BT-549 breast, with EKVX NSCLC, in the test on KM12 colon, in the test on MDA-MB-231 breast and with NCI-H460 lung was > 100 µM in each case. For the same molecule, the TGI is > 88.6 µM in the test on SK-MEL-2 melanoma; > 79.2 µM in the test on SK-MEL-28 melanoma; > 100 µM with SK-MEL-5 melanoma; > 100 µM with SN12C renal; > 100 µM in the test with SNB-75 CNS; > 100 µM in the test with SR leukemia. For the same molecule, the TGI in the test with SW-620 colon is > 31.6 µM; in the test with UACC-62 melanoma, > 82.6 µM; in the test on UO-31 renal, 40.8 µM.
With `COC(=O)C1(CCCCl)CCCN1C(=O)OC(C)(C)C` (centres undefined), the TGI in the test on BT-549 breast, in the test with EKVX NSCLC, with KM12 colon, in the test on MDA-MB-231 breast, in the test with NCI-H460 lung and with OVCAR-4 ovarian was > 100 µM each time. For the same molecule, the TGI with SK-MEL-2 melanoma, in the test with SK-MEL-28 melanoma, in the test on SK-MEL-5 melanoma, in the test on SN12C renal, in the test with SNB-75 CNS and in the test with SR leukemia was > 100 µM each time. Further, the TGI in the test on SW-620 colon, in the test on UACC-62 melanoma and in the test with UO-31 renal was > 100 µM throughout.
For the molecule `C/C=C1/C=CC2c3[nH]c4ccccc4c3CCN2C1` (centres undefined), the TGI with EKVX NSCLC, with KM12 colon, with NCI-H460 lung, with SK-MEL-2 melanoma, in the test on SK-MEL-28 melanoma and with SK-MEL-5 melanoma was > 400 µM throughout. For the same molecule, the TGI in the test with SN12C renal, in the test on SR leukemia, with SW-620 colon and in the test on UACC-62 melanoma was > 400 µM each time.
In the case of `Cc1csc(=Nc2ccccc2)n1CCC(O)(P(=O)(O)O)P(=O)(O)O`, the TGI with BT-549 breast, in the test with EKVX NSCLC, in the test on HS 578T breast, in the test on KM12 colon, in the test on MDA-MB-231 breast and in the test with NCI-H460 lung was > 100 µM throughout. Besides, the TGI with SK-MEL-5 melanoma, in the test on SNB-75 CNS, in the test with UACC-62 melanoma and in the test on UO-31 renal was > 100 µM in each case.
Turning to `CCOC(OCC)(OCC)C(Br)CC` (centres undefined), the TGI in the test with A498 renal, with EKVX NSCLC, in the test with KM12 colon, in the test on NCI-H460 lung, in the test on OVCAR-4 ovarian and with SK-MEL-2 melanoma was > 100 µM throughout. Further, the TGI is > 100 µM in the test on SK-MEL-28 melanoma; > 100 µM with SK-MEL-5 melanoma; > 100 µM with SN12C renal; > 100 µM in the test with SNB-75 CNS; 49 µM with SR leukemia; > 100 µM with UACC-62 melanoma. Moreover, the TGI with UO-31 renal is > 100 µM.
Take `Cc1cc(C=O)c2c(=O)c3c(O)ccc(/C=C/C(C)C)c3oc2c1`: the TGI in the test on KM12 colon, in the test with NCI-H460 lung, in the test with OVCAR-4 ovarian, with SK-MEL-2 melanoma, in the test on SK-MEL-28 melanoma and in the test on SK-MEL-5 melanoma was > 100 µM in each case. In addition, the TGI was > 100 µM with SNB-75 CNS; 78.2 µM in the test on SR leukemia; > 100 µM in the test on SW-620 colon; > 100 µM with UACC-62 melanoma; > 100 µM in the test with UO-31 renal.
`O=C(O)c1ccccc1/C=C1\Cc2cc3c(cc2C1=O)CCC3`: the TGI was 80.1 µM in the test with A498 renal; > 100 µM with BT-549 breast; > 100 µM in the test on EKVX NSCLC; > 100 µM in the test on KM12 colon; 51.2 µM in the test on MDA-MB-231 breast; 81.9 µM in the test with NCI-H460 lung. Also, the TGI was 85.7 µM with OVCAR-4 ovarian; 55.4 µM with SK-MEL-2 melanoma; > 100 µM in the test on SK-MEL-28 melanoma; 38.1 µM with SK-MEL-5 melanoma; 56.8 µM with SN12C renal; 25 µM with SNB-75 CNS. Further, the TGI is 28.1 µM in the test on SR leukemia, 60.4 µM with SW-620 colon, 57.8 µM in the test on UACC-62 melanoma and > 100 µM with UO-31 renal.
`CN1S(=O)(=O)N(C)P12(N=P(CP(=NP13(N(C)S(=O)(=O)N1C)N(C)S(=O)(=O)N3C)(c1ccccc1)c1ccccc1)(c1ccccc1)c1ccccc1)N(C)S(=O)(=O)N2C`: the TGI in the test on A498 renal, in the test on EKVX NSCLC, in the test on KM12 colon, with NCI-H460 lung, in the test with SK-MEL-2 melanoma and in the test on SK-MEL-28 melanoma was > 100 µM throughout. Moreover, the TGI in the test on SK-MEL-5 melanoma, in the test with SN12C renal, with SNB-75 CNS, in the test on SW-620 colon, in the test on UACC-62 melanoma and with UO-31 renal was > 100 µM in each case.
Take `COC(=O)C1CC2CC1C1C2SC(F)(F)C1(F)F` (centres undefined): the TGI in the test on A498 renal, in the test with EKVX NSCLC, with HS 578T breast, in the test with KM12 colon, with MDA-MB-231 breast and in the test with NCI-H460 lung was > 100 µM each time. Moreover, the TGI in the test with OVCAR-4 ovarian, in the test on SK-MEL-2 melanoma, in the test on SK-MEL-28 melanoma, in the test on SK-MEL-5 melanoma, in the test on SN12C renal and with SNB-75 CNS was > 100 µM in each case. For the same molecule, the TGI in the test on SR leukemia, in the test on SW-620 colon, in the test with UACC-62 melanoma and in the test with UO-31 renal was > 100 µM each time.
On to `O=c1oc2ccccc2c(-c2ccc(O)cc2)c1Oc1ccccc1`, for which the TGI was 23.5 µM with A498 renal; 49.9 µM in the test on EKVX NSCLC; 18.2 µM in the test with HS 578T breast; > 68.5 µM in the test with KM12 colon; > 100 µM in the test with MDA-MB-231 breast; 20.5 µM with NCI-H460 lung. The TGI in the test with OVCAR-4 ovarian is > 56.7 µM; in the test on SK-MEL-2 melanoma it was 18.5 µM; in the test with SK-MEL-28 melanoma, > 66.1 µM; with SK-MEL-5 melanoma, 41.2 µM; in the test with SN12C renal, 55.3 µM; in the test with SNB-75 CNS, > 79.3 µM. The TGI in the test on SR leukemia was > 100 µM; with SW-620 colon, > 100 µM; in the test on UACC-62 melanoma it was 18.6 µM; in the test with UO-31 renal, 32.3 µM.
